Reference: patent US9399626B2, “2-thiopyrimidinones” (Pfizer Inc., priority 2011, dated 2016)
Counter-ions that a name gives are not always drawn.

Molecular target: T1, MPO (purified from human polynuclear leukocytes) (Homo sapiens, UniProt P05164)
T1 construct: purified from human polynuclear leukocytes; purchased Calbiochem/EMD Biosciences; host or cells: human polynuclear leukocytes (natural source)
Assay: MPO Amplex Red Activity Assay
Format: biochemical
Conditions: Table 1, 2 μM H2O2, pH 7.4
Procedure, shortened: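 Human leukocyte MPO […] oxidises 30 μM Amplex Red with 2 μM H2O2 in 50 mM NaPi pH 7.4, 150 mM NaCl, 1 mM DTPA, 2% DMSO. Resorufin fluorescence (ex 530/em 580 nm) read every 20 s, minus catalase background. kobs from the first 600 s, corrected for auto-inactivation, fit versus [I] for kinact/KI.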

T1 sequence (P05164 279-745 limits assumed): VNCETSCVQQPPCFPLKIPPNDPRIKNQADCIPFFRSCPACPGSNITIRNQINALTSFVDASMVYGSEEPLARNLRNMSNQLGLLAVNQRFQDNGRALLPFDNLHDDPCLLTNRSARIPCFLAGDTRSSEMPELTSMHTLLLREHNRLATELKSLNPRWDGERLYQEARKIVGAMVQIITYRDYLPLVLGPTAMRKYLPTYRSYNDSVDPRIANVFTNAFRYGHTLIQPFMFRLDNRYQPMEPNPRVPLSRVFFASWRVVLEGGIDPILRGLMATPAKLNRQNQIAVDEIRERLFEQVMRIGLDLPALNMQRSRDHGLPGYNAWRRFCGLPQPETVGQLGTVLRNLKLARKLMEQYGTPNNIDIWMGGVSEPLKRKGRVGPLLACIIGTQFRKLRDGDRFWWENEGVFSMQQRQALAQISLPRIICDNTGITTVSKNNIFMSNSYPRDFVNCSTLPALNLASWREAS
T1 sequence (P05164 165-273 limits assumed): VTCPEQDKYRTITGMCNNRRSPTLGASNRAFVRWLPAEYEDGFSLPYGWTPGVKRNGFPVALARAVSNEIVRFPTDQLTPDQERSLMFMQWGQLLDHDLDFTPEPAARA

| MPO kinact/Ki | Compound |
| --- | --- |
| 4000 1/s per M | COc1ncc(C)cc1-c1cc(=O)[nH]c(=S)n1CCCN [Example 45, 1-(3-aminopropyl)-6-(2-methoxy-5-methylpyridin-3-yl)-2-thioxo-2,3-dihydropyrimidin-4(1H)-one trifluoroacetate] |
| 1280 1/s per M | COCCn1c(-c2cnc(N(C)C)cc2OC)cc(=O)[nH]c1=S [Example 338, 6-[6-(dimethylamino)-4-methoxypyridin-3-yl]-1-(2-methoxyethyl)-2-thioxo-2,3-dihydropyrimidin-4(1H)-one] |
| 6090 1/s per M | COc1ccc(-c2cc(=O)[nH]c(=S)n2CC2CCCN2)c(OC)c1 (centres unmarked) [Example 211, 6-(2,4-dimethoxyphenyl)-1-(pyrrolidin-2-ylmethyl)-2-thioxo-2,3-dihydropyrimidin-4(1H)-one hydrochloride] |
| 2460 1/s per M | COCCn1c(-c2cccc(Cl)c2)cc(=O)[nH]c1=S [Example 300, 6-(3-chlorophenyl)-1-(2-methoxyethyl)-2-thioxo-2,3-dihydropyrimidin-4(1H)-one] |
| 2360 1/s per M | COc1ccc(-c2cc(=O)[nH]c(=S)n2CCC(=O)N(C)C)c(OC)c1 [Example 237, 3-[6-(2,4-dimethoxyphenyl)-4-oxo-2-thioxo-3,4-dihydropyrimidin-1(2H)-yl]-N,N-dimethylpropanamide] |
| 4000 1/s per M | COc1ccc(-c2cc(=O)[nH]c(=S)n2CC2CCN(C(=N)N)C2)c(OC)c1 (centres unmarked) [Example 259, 3-{[6-(2,4-dimethoxyphenyl)-4-oxo-2-thioxo-3,4-dihydropyrimidin-1(2H)-yl]methyl}pyrrolidine-1-carboximidamide trifluoroacetate] |
| 6100 1/s per M | COCCn1c(-c2cc(Cl)ccc2OC)cc(=O)[nH]c1=S [Example 333, 6-(5-chloro-2-methoxyphenyl)-1-(2-methoxyethyl)-2-thioxo-2,3-dihydropyrimidin-4(1H)-one] |
| 8200 1/s per M | COCCn1c(-c2ccc(OC)cc2OC)cc(=O)[nH]c1=S [Example 182, 6-(2,4-dimethoxyphenyl)-1-(2-methoxyethyl)-2-thioxo-2,3-dihydropyrimidin-4(1H)-one] |
| 13100 1/s per M | COc1cc(F)ccc1-c1cc(=O)[nH]c(=S)n1CCCN [Example 57, 1-(3-aminopropyl)-6-(4-fluoro-2-methoxyphenyl)-2-thioxo-2,3-dihydropyrimidin-4(1H)-one hydrochloride] |
| 9920 1/s per M | COc1ccc(Cl)cc1-c1cc(=O)[nH]c(=S)n1C[C@@H](O)CO [Example 116, 6-(5-chloro-2-methoxyphenyl)-1-[(2R)-2,3-dihydroxypropyl]-2-thioxo-2,3-dihydropyrimidin-4(1H)-one] |
| 5420 1/s per M | O=c1cc(-c2ccc3c(c2)CCO3)n(CCO)c(=S)[nH]1 [Example 15, 6-(2,3-dihydro-1-benzofuran-5-yl)-1-(2-hydroxyethyl)-2-thioxo-2,3-dihydropyrimidin-4(1H)-one] |
| 1110 1/s per M | COCCn1c(-c2ccccc2CCO)cc(=O)[nH]c1=S [Example 46, 6-[2-(2-hydroxyethyl)phenyl]-1-(2-methoxyethyl)-2-thioxo-2,3-dihydropyrimidin-4(1H)-one] |
| 8950 1/s per M | COc1cc(OC)c(-c2cc(=O)[nH]c(=S)n2CC(N)=O)cc1C [Example 146, 2-[6-(2,4-dimethoxy-5-methylphenyl)-4-oxo-2-thioxo-3,4-dihydropyrimidin-1(2H)-yl]acetamide] |
| 8280 1/s per M | COc1cc(OC)c(-c2cc(=O)[nH]c(=S)n2CCO)cc1OC [Example 202, 1-(2-hydroxyethyl)-2-thioxo-6-(2,4,5-trimethoxyphenyl)-2,3-dihydropyrimidin-4(1H)-one] |
| 1870 1/s per M | NCCCn1c(-c2ccccc2-n2nccn2)cc(=O)[nH]c1=S [Example 98, 1-(3-aminopropyl)-2-thioxo-6-[2-(2H-1,2,3-triazol-2-yl)phenyl]-2,3-dihydropyrimidin-4(1H)-one hydrochloride] |
| 2420 1/s per M | COc1ccc(-c2cc(=O)[nH]c(=S)n2CCCN(C)C)c(OC)c1 [Example 220, 6-(2,4-dimethoxyphenyl)-1-[3-(dimethylamino)propyl]-2-thioxo-2,3-dihydropyrimidin-4(1H)-one] |
| 1400 1/s per M | COCCn1c(-c2cccc(S(=O)(=O)N(C)C)c2)cc(=O)[nH]c1=S [Example 348, 3-[3-(2-methoxyethyl)-6-oxo-2-thioxo-1,2,3,6-tetrahydropyrimidin-4-yl]-N,N-dimethylbenzenesulfonamide] |

Same assay, conditions: Table 1A, 2 μM H2O2, pH 7.4

| MPO kinact/Ki | Compound |
| --- | --- |
| 3260 1/s per M | COc1ccc(-c2cc(=O)[nH]c(=S)n2CC(=O)N[C@@H]2CC[C@H]2N)c(OC)c1 [Example 441, N-[(1R,2R)-2-aminocyclobutyl]-2-[6-(2,4-dimethoxyphenyl)-4-oxo-2-thioxo-3,4-dihydropyrimidin-1(2H)-yl]acetamide] |
| 6720 1/s per M | COc1ccc(OC)c(-c2cc(=O)[nH]c(=S)n2CCNC(=O)CN)c1 [Example 352, N-{2-[6-(2,5-dimethoxyphenyl)-4-oxo-2-thioxo-3,4-dihydropyrimidin-1(2H)-yl]ethyl}glycinamide] |
| 9680 1/s per M | NC(=O)Cn1c(-c2cccc3c2OCCO3)cc(=O)[nH]c1=S [Example 363, 2-[6-(2,3-dihydro-1,4-benzodioxin-5-yl)-4-oxo-2-thioxo-3,4-dihydropyrimidin-1(2H)-yl]acetamide] |
| 9890 1/s per M | COc1ccc(-c2cc(=O)[nH]c(=S)n2CCC#N)c(OC)c1 [Example 408, 3-[6-(2,4-dimethoxyphenyl)-4-oxo-2-thioxo-3,4-dihydropyrimidin-1(2H)-yl]propanenitrile] |
| 4600 1/s per M | CNCCCn1c(-c2cc(F)ccc2OC)cc(=O)[nH]c1=S [Example 374, 6-(5-fluoro-2-methoxyphenyl)-1-[3-(methylamino)propyl]-2-thioxo-2,3-dihydropyrimidin-4(1H)-one] |
| 3490 1/s per M | COc1ccc(-c2cc(=O)[nH]c(=S)n2CC(=O)N[C@H](C)[C@@H](C)N)c(OC)c1 [Example 433, N-[(2R,3R)-3-aminobutan-2-yl]-2-[6-(2,4-dimethoxyphenyl)-4-oxo-2-thioxo-3,4-dihydropyrimidin-1(2H)-yl]acetamide] |
| 4720 1/s per M | COc1cc(OCCO)ccc1-c1cc(=O)[nH]c(=S)n1CC(N)=O [Example 387, 2-{6-[4-(2-hydroxyethoxy)-2-methoxyphenyl]-4-oxo-2-thioxo-3,4-dihydropyrimidin-1(2H)-yl}acetamide] |
| 13600 1/s per M | COc1ccc(-c2cc(=O)[nH]c(=S)n2CC(=O)N[C@H]2CCNC2)c(OC)c1 [Example 393, 2-[6-(2,4-dimethoxyphenyl)-4-oxo-2-thioxo-3,4-dihydropyrimidin-1(2H)-yl]-N-[(3S)-pyrrolidin-3-yl]acetamide] |
| 9440 1/s per M | COc1ccc(-c2cc(=O)[nH]c(=S)n2CC(=O)N[C@H]2C[C@@H](N)C2)c(OC)c1 [Example 430, N-(cis-3-aminocyclobutyl)-2-[6-(2,4-dimethoxyphenyl)-4-oxo-2-thioxo-3,4-dihydropyrimidin-1(2H)-yl]acetamide] |
